US4415495A, “5,6;8,9-Tetrahydro-7H-dibenz(d,f)azonines” (Godecke Aktiengesellschaft, priority 1981, dated 1983)

Experiments:
[1] = system: Rats with calcium chloride induced arrhythmias; test: Calcium chloride induced arrhythmias in narcotised rats (prophylactic i.v. administration); assay type: in vivo; conditions: 2.5 mg/kg I.V.; control 10.9 min.
Text: By means of the intravenous infusion of a calcium chloride solution, […] induced in narcotised rats which, after termination of the infusion, continue for a certain period of time (modification of the method described by Malinow et al., Arch. Int. Pharmacodyn, 102, 266/1955). This arrhythmic phase is shortened by the prophylactic administration of antiarrhythmic drugs. […] The results of the experiments with calcium chloride induced arrhythmias on rats are summarized in the following Table I. The average period of arrhythmia is calculated from experiments with at least 10 animals.

[2] = system: guinea pig left ventricle; test: Refractory time of electrically stimulated guinea pig left ventricles (organ bath); conditions: 8.0 × 10^-6 g/ml in the bath
Procedure: The left ventricles of guinea pig hearts are electrically stimulated in an organ bath, the amplitude of contraction being recorded. By means of a second stimulus, the time is determined below which the heart muscle no longer reacts with a separately resolvable contraction. This time is defined as the refractory time.
The following Table II contains information concerning the maximum tested compound concentrations, as well as the average prolongation of the refractory time measured at this concentration in comparison with the initial value of, in each case, at least 6 experiments.

[3] = system: dogs with coronary ligature; test: Coronary ligature on dogs (period of sinus rhythm from ECG); assay type: in vivo
Text: Using narcotised dogs, after thoracotomy, a coronary artery (side branch of the R. interventr. post. or of the R. circumflexus) is ligatured (see. A. S. Harris, Circulation, 1, 1318/1950). The heart rhythm disturbances which occur as a result thereof are, on the day following the operation, recorded on the awake animals and treated with the compounds according to the present invention by intragastral and intravenous administration. Procainamide is used as a positive standard. From the ECG, the time is determined in which, after administration of the test compound, a sinus rhythm can be recognized.
The compounds of Examples 1 (Table III), 4 (Table IV) and 10 (Table V) were tested on dogs with a coronary ligature. All the compounds were, in each case, tested on at least 5 animals.

rabbit eye = test: Local anesthetic action on the rabbit eye (corneal reflex); assay type: in vivo, rabbits; conditions: for Period of Action: observation discontinued after 60 minutes
Procedure: The corneal reflex is induced in rabbits using a horse hair which bends with a pressure of about 250 mg (modification of the method described by M. von Frey, Beitrage zur Physiologie des Schmerzsinns, Vehr. d. Kgl. Sachs, Ges. d. Wiss. zu Leipzig, Math.-phys. Kl., 46, 185/1894; Untersuchungen uber die Sinnesfunktionen der menschlichen Haut, Leipzig, 1896). After instillation of local anesthetics into the conjunctival sac of the eye, the number of impacts with the horse hair which result in closure of the eyelid is increased. At intervals of 4 minutes, in each case a maximum of 100 successive impacts are carried out and such an action is taken as being 100%. The period of investigation is at most 60 minutes. The action of the compounds according to the present invention is compared with that of tetracaine and procainamide.
The following Table VII contains the results of the experiments on the rabbit eye. There are also given, in addition to the concentrations of the test solutions which were instilled into the conjunctival sac, the actions of the compounds in % (see description of the method), as well as their period of action. In each case, the observations were discontinued after 60 minutes.

in vivo = conditions: mouse, po
Procedure: The compounds according to the present invention are administered intragastrally to male mice (NMRI) with a body weight of from 20 to 25 g. Each dosage group consists of 4 animals. The LD50 values are determined after having observed the animals for 7 days.

## COc1ccc2c(c1)-c1c(ccc(OC)c1O)CC(Cc1ccccc1)N(C)CC2 (single isomer, unassigned; (-)) [Example 1, (-)-6-Benzyl-2,12-dimethoxy-1-hydroxy-7-methyl-5,6;8,9-tetrahydro-7H-dibenz(d,f)azonine]
[1]
  average period of arrhythmia: 4.0 min
[2]
  average prolongation of the refractory time: 43 ms
[3]; 4 mg/kg i.v.
  average period of eurhythmia: 62 min
[3]; 10 mg/kg i.g.
  average period of eurhythmia: 49 min
[3]; 15 mg/kg i.g.
  average period of eurhythmia: 99 min
[3]; 20 mg/kg i.g.
  average period of eurhythmia: 105 min
[3]; 25 mg/kg i.g.
  average period of eurhythmia: 198 min
Rabbit eye; Oryctolagus cuniculus, topical, concentration 0.1 %
  inhibition in vivo at 0.1 %: 89%
Rabbit eye; Oryctolagus cuniculus, topical, concentration 0.5 %
  inhibition in vivo at 0.5 %: 100%
Rabbit eye; concentration 0.1 %
  Period of Action: about 49 Min.
Rabbit eye; concentration 0.5 %
  Period of Action: > 60 min
In vivo
  LD50 at 168 h: 680 mg/kg
